Values quoted from earlier work as cited in US20130345262A1, “METHOD FOR PREVENTION OF STROKE” (BOEHRINGER INGELHEIM INTERNATIONAL GMBH, priority 2012, published 2013).

Tested on: patients who have nonvalvular atrial fibrillation
Details: patients with nonvalvular atrial fibrillation

CC(=O)CC(c1ccccc1)c1c(O)c2ccccc2oc1=O (racemic) [warfarin, 3-(α-acetonylbenzyl)4-hydroxycoumarin]
reduction of the risk of stroke compared to placebo: about 64%
